We go through 10 compounds from ChEMBL document CHEMBL4406790, “Targeted Treatments for Chronic Obstructive Pulmonary Disease (COPD) Using Low-Molecular-Weight Drugs (LMWDs)” (J Med Chem, 2019).

Data set [1] can be described thus: Oral bioavailability in human. Format: ADME, organism-based. Conditions: in vivo.
Data set [2] concerns the target Voltage-gated inwardly rectifying potassium channel KCNH2 (Homo sapiens, UniProt Q12809). Description: Inhibition of human ERG by high throughput automated patch clamp method. (Patch clamp records ionic current or voltage across a cell membrane.)
Data set [3] is described as follows: Half life in human. Format: ADME.
The target of data set [4] is Muscarinic acetylcholine receptor M3 (Homo sapiens, UniProt P20309). As to the kind of experiment: Antagonist activity at human M3 receptor.
Sequence of Muscarinic acetylcholine receptor M3 (P20309 whole entry): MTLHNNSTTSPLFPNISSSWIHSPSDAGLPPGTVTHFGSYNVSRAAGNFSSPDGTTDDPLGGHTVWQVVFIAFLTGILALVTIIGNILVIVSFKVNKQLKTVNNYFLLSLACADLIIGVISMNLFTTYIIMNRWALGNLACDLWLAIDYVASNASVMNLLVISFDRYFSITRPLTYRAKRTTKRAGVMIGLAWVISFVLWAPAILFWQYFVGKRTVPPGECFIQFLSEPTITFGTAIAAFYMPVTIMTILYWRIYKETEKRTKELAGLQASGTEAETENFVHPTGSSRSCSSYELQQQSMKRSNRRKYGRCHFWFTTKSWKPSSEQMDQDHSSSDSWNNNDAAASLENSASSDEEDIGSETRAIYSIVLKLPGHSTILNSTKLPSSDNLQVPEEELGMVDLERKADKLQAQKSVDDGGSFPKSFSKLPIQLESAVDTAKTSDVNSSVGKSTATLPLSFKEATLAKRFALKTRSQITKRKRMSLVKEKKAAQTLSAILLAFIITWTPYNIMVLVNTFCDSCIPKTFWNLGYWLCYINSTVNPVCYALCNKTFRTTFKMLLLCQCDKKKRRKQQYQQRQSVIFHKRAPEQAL
For data set [5], the target named is T1, Beta-2 adrenergic receptor (Homo sapiens, UniProt P07550). As to the kind of experiment: Agonist activity at human beta2 adrenoceptor.
T1 sequence (P07550 whole entry): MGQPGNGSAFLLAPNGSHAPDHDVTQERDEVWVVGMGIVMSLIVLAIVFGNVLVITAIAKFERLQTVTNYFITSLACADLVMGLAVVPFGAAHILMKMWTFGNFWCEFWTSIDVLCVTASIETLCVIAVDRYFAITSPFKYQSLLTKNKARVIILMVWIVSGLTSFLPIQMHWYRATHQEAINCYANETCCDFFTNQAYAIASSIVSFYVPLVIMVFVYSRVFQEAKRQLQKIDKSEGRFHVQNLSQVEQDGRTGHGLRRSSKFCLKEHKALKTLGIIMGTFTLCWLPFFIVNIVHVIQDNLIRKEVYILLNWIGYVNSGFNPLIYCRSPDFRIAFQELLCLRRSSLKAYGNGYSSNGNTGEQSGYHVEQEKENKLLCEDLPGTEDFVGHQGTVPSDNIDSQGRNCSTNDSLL
In data set [6] the target is 3',5'-cyclic-AMP phosphodiesterase 4B (Homo sapiens, UniProt Q07343). Description: Inhibition of PDE4B2 (unknown origin).
Sequence of 3',5'-cyclic-AMP phosphodiesterase 4B (Q07343 whole entry): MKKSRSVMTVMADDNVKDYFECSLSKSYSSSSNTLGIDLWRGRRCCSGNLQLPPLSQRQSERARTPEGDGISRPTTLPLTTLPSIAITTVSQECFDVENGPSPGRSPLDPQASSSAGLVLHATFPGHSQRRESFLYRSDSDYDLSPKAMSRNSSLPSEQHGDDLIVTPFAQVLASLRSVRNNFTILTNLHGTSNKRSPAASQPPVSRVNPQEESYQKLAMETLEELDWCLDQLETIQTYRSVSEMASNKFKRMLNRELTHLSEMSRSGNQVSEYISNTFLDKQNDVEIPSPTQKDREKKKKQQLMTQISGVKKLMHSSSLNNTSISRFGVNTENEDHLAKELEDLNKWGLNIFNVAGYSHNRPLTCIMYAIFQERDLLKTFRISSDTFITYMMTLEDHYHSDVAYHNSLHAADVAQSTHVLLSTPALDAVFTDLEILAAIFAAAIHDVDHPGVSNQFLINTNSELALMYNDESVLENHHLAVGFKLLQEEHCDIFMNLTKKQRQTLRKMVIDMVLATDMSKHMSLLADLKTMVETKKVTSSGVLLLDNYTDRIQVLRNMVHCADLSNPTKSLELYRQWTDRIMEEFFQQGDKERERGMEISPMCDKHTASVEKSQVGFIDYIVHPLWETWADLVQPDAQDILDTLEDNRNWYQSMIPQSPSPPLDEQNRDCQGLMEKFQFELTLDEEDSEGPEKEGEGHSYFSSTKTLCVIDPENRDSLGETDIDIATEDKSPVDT
Data set [7] has as its target T1, Beta-2 adrenergic receptor. As to the kind of experiment: Inhibition of beta2 adrenoceptor (unknown origin).
In data set [8] the target is Macrophage metalloelastase (Homo sapiens, UniProt P39900). Description: Inhibition of MMP12 (unknown origin).
Sequence of Macrophage metalloelastase (P39900 whole entry): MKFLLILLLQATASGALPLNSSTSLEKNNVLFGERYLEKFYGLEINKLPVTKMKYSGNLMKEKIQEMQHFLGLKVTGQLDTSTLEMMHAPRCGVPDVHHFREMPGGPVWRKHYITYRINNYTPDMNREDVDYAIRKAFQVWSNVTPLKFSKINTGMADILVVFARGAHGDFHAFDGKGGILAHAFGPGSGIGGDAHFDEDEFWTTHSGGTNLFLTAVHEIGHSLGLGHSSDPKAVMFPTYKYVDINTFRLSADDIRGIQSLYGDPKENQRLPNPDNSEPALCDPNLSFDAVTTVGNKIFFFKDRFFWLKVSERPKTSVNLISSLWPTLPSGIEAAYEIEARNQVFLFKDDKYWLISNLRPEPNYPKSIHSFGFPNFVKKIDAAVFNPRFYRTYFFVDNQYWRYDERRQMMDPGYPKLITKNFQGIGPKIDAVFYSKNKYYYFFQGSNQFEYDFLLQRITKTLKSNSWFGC
Data set [9] addresses T2, Muscarinic acetylcholine receptor M2 (Homo sapiens, UniProt P08172).
T2 sequence (P08172 whole entry): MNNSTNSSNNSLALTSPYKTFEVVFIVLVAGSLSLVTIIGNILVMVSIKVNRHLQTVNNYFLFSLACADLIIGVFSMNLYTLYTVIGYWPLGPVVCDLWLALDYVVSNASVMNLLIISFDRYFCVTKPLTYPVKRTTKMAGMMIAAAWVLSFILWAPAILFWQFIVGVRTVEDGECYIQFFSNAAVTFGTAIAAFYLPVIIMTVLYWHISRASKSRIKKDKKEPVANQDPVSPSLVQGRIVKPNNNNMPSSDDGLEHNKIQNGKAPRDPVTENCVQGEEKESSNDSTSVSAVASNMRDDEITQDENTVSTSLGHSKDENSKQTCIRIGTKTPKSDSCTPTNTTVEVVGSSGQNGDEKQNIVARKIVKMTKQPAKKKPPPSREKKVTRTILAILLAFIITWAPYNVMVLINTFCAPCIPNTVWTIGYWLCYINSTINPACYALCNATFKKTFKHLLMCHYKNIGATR
As to the kind of experiment: Inhibition of M2 receptor (unknown origin).

Data set [10] in a line: Inhibition of TNFalpha-induced NFkappaB (unknown origin). Also noted: species or system Homo sapiens.

Sequence of Voltage-gated inwardly rectifying potassium channel KCNH2 (Q12809 whole entry): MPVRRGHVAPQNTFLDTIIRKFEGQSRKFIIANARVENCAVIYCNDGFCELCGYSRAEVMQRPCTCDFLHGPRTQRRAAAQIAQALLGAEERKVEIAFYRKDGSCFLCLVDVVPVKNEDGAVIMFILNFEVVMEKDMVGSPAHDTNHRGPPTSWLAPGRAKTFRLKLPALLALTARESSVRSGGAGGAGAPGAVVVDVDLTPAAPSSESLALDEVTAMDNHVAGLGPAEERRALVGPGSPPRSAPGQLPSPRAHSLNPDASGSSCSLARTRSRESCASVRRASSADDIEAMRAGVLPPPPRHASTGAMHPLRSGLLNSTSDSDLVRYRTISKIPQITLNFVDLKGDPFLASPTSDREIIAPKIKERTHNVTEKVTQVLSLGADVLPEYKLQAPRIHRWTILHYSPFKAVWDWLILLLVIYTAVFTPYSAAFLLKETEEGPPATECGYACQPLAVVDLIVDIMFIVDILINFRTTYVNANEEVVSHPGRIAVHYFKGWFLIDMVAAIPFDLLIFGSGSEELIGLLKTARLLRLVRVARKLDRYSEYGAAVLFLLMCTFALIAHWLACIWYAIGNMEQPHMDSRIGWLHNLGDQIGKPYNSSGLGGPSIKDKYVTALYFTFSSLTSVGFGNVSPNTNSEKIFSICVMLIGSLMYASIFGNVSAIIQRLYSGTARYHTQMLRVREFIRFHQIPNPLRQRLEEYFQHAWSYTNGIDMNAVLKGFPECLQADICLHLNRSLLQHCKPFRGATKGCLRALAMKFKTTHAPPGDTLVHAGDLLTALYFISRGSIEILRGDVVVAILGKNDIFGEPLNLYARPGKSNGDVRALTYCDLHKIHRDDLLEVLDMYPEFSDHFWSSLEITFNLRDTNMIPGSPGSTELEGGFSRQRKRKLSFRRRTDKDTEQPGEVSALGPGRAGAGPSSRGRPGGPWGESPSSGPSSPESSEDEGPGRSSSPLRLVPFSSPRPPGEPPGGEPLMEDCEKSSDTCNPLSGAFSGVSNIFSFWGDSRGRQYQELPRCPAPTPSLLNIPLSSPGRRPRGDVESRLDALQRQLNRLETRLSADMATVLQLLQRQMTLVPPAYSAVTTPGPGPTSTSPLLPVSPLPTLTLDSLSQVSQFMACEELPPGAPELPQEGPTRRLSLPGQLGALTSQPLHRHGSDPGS

As a reminder, the bioavailability is dose-corrected exposure relative to a reference, in per cent. The low end stands for poor availability, the high end for good availability. Usually IC50 stands for the concentration needed to halve the response being measured. One may read the half-life as the time needed for the level to fall by half in the phase considered. A low value points to fast loss. In data set [1], `CC(C)(O)c1coc(S(=O)(=O)NC(=O)Nc2c3c(cc4c2CCC4)CCC3)c1` displayed a bioavailability of 68%. Further, in data set [2], the concentration for half-maximal inhibition (IC50) is above 30000 nM. In data set [3], this compound had a half-life of 3.27 h.
Turning to `CC1=C(C#N)[C@@H](c2ccc(C#N)cc2S(C)(=O)=O)N(C)C(=O)N1c1cccc(C(F)(F)F)c1`, in data set [1], the bioavailability is 63%. In addition, the half-life in [3] was 8.5 h.
What is called EC50 is the concentration needed to bring the measured effect to its halfway point. A lower EC50 goes with greater potency. `CC(C)c1ncc(C(=O)N2CCOC3(CCN(Cc4ccc(F)c(CCNC[C@H](O)c5ccc(O)c6[nH]c(=O)sc56)c4)CC3)C2)s1` showed an IC50 in data set [4] of 1.58 nM. For the same compound, the EC50 in data set [5] was 0.251 nM.
As for `COc1cccc(Nc2c(C(N)=O)cnc3c(C)cc(S(=O)(=O)c4cccc(C(=O)Nc5ccc(C#CCCCNC[C@H](O)c6ccc(O)c7[nH]c(=O)ccc67)cc5)c4)cc23)c1`, the IC50 was 5 nM in data set [6] and 11 nM in [7].
`COc1ccc(Oc2ccc(S(=O)(=O)c3ccccc3CC(=O)NO)cc2)cc1`: the half-inhibitory concentration (IC50) in data set [8] worked out at 0.2 nM.
On to `COc1cc(NC(=O)CCN2CCC(OC(=O)Nc3ccccc3-c3ccccc3)CC2)c(Cl)cc1CNC[C@H](O)c1ccc(O)c2[nH]c(=O)ccc12` [BATEFENTEROL], for which the 50% inhibitory concentration (IC50) in data set [4] was 1.58 nM.
In general, Ki refers to a measure of affinity in units of concentration, obtained from inhibition or displacement. `C[N+]12CCC(CC1)C(OCC(O)(c1ccccc1)C1CCCC1)C2` (stereo unspecified) [BENCYCLOQUIDIUM BROMIDE]: in data set [9], the affinity corresponds to a Ki of 6.17 nM.
In data set [10], `O=C(Nc1cc(C(F)(F)F)cc(C(F)(F)F)c1)c1cc(Cl)ccc1O` [IMD-0354] returned an IC50 of 1200 nM.
On to `COc1cc(NC(=O)OCCN(C)[C@H]2CC[C@H](OC(=O)C(O)(c3cccs3)c3cccs3)CC2)c(Cl)cc1CNC[C@H](O)c1ccc(O)c2[nH]c(=O)ccc12` [LAS190792], for which the EC50 in data set [5] was 0.251 nM.
For `CN(CCCn1nnc2cc(CNC[C@H](O)c3ccc(O)c4[nH]c(=O)ccc34)ccc21)[C@H]1CC[C@H](OC(=O)C(O)(c2cccs2)c2cccs2)CC1` [NAVAFENTEROL], the IC50 in data set [4] is 1.58 nM. Besides, the EC50 in data set [5] was 0.251 nM.
